This is an account of results in patent US20140275233A1, “ACTIVATED SOY POD FIBER” (priority 2013, published 2014).

Values joined by “and” are separate entries in the source; they are usually repeats but may differ in a detail not shown here. Identical values can stand only once.

The assay has as its system 3T3-L1 adipocytes. In words: [3H]-2-deoxy-glucose uptake by adipocytes. The format is cell-based, Murine. As to the method: To determine if one mechanism for glyceollins to improve the oral glucose challenge in a prediabetic model is by increasing the glucose uptake by fat, glyceollin pharmacology was studied in 3T3-L1 cells. Murine preadipocytes (Zen-Bio Inc.) were cultured using PM-1-L1 medium (Zen-Bio Inc.) containing Dulbecco's modified Eagle's medium (DMEM)/Ham's F-10 medium (1:1, v/v), HEPES 15 mM (pH 7.4), 10% (v/v) fetal bovine serum, penicillin (100 U/ml), streptomycin ([…]), and amphotericin B (0.25 μg/ml) in a humidified atmosphere (5% CO2/95% air). After 3-4 days, confluent cells were placed in differentiation medium (DM-2-L1, Zen-Bio Inc.) containing DMEM/Ham's F-10 medium (1:1, v/v), HEPES 15 mM (pH 7.4), 3% (v/v) fetal bovine serum, biotin (33 μM), pantothenate (17 μM), human insulin (100 nM), dexamethasone (1 μM), penicillin (100 U/ml), streptomycin (100 μg/ml), amphotericin B (0.25 μg/ml), isobutylmethylxanthine ([…]) and PPARγ agonist (10 μM) and further incubated in the humidified atmosphere for 3 days. […]
Adipocytes were rinsed in sterile, fresh KRH buffer (HEPES pH=7.4, 1 mM CaCl2, 1.2 mM MgSO4, 1 mM KH2PO4, 1.4 mM KCl, […], 130 mM NaCl), and then preincubated for 24 h in KRH buffer. […] The vials were mixed and counted for 10 min in an Applied Biosystems 1100 liquid scintillation counter using the factory preset window to detect tritium.

Turning to insulin, the EC50 (30 min exposure at 37° C., 0.3-300 nM, n=6, read-out: EC50 of insulin-mediated glucose uptake) is 1.9 nM and 1.92 nM. Besides, the “maximal stimulation of glucose uptake relative to basal” value (insulin 0.3 nM-300 nM) is reported as “about 3 times”.
